Patent publication US20240024488A1, “COMPOUNDS AND USES THEREOF” (Foghorn Therapeutics Inc., priority 2020, published 2024)

How the values were obtained:
[1] = molecular target: T1, HiBit-BRG1 fusion protein (Homo sapiens, UniProt P51532); assay: HiBiT-BRG1 cell-based degradation assay (Nano-Glo HiBiT Lytic Detection, 24 h); conditions: HeLa cell line expressing HiBit-BRG1 and LgBit; for Dmax: read-out: BRG1 HiBit Degradation Maximum (%); for DC50: read-out: BRMG1 HiBit Degradation IC50
T1 construct: expressed in transfected cells
Procedure, shortened: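 Seed 5000 HeLa HiBit-BRG1/LgBit cells per well; treat 24 h; equilibrate 15 min at room temperature; add Nano-Glo HiBiT lytic reagent, shake 10 min, read luminescence. Percent degradation is scaled between DMSO and 2 μM reference degrader wells.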

HiBit-BRM fusion protein = molecular target: T2, HiBit-BRM fusion protein (Homo sapiens, UniProt P51531); assay: HiBiT-BRM cell-based degradation assay (Nano-Glo HiBiT Lytic Detection, 24 h); conditions: HeLa cell line expressing HiBiT-BRM; for DC50: read-out: BRM HiBit Degradation IC50
T2 construct: expressed in transfected cells
Procedure, shortened: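 HeLa cells stably expressing HiBiT-BRM were treated for 24 h with compounds (10-point 3-fold dilutions, 30 μM final top dose, in duplicate). HiBiT was detected by lytic LgBiT complementation luminescence. % degradation was normalized to DMSO (high control) and 2 μM of a reference BRM/BRG1 degrader (low control).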

T1 sequence (P51532 whole entry, the tested form may be a part): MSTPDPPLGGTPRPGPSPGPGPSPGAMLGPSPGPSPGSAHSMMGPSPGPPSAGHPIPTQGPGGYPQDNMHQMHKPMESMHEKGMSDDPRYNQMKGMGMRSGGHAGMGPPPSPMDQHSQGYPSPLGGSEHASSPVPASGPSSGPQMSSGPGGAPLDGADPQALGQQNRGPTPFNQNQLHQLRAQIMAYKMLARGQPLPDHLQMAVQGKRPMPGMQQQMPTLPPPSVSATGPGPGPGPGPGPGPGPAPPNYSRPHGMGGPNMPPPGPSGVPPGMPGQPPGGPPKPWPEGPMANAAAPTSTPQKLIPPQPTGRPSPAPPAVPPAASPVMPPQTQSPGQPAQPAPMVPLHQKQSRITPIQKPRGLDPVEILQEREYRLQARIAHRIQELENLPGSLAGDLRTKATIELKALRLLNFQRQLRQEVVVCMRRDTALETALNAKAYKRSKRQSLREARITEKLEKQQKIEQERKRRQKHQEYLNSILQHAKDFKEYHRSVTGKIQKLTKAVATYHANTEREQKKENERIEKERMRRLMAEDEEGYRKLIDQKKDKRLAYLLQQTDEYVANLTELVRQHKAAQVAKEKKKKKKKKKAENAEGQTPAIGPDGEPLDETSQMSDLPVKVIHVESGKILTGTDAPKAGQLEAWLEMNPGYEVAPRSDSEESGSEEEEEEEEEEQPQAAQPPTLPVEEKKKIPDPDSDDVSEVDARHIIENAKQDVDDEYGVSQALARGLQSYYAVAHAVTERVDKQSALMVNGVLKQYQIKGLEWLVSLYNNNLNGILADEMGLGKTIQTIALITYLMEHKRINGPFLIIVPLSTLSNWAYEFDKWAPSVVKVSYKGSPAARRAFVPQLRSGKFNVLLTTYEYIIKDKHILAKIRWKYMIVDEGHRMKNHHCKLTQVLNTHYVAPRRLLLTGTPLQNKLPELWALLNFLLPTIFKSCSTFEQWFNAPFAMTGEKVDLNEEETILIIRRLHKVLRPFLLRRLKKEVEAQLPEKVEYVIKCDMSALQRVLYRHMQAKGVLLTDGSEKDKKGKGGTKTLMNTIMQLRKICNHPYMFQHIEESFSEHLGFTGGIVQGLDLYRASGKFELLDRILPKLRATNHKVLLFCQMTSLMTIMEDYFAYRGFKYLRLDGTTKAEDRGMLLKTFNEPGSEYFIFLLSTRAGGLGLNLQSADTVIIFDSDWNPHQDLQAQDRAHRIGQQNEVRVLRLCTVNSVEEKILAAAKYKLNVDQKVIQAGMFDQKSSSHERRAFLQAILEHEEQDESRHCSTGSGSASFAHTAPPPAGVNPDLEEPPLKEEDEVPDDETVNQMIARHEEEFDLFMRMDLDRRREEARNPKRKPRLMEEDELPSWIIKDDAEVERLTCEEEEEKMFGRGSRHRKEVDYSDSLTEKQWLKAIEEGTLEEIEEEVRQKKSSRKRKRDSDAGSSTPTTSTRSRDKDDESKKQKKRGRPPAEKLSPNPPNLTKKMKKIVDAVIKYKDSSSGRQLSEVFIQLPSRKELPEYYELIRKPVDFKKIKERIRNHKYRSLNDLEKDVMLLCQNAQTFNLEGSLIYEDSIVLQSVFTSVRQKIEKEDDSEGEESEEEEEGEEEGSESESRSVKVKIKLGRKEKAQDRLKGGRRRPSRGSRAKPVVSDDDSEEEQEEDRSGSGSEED
T2 sequence (P51531 whole entry, the tested form may be a part): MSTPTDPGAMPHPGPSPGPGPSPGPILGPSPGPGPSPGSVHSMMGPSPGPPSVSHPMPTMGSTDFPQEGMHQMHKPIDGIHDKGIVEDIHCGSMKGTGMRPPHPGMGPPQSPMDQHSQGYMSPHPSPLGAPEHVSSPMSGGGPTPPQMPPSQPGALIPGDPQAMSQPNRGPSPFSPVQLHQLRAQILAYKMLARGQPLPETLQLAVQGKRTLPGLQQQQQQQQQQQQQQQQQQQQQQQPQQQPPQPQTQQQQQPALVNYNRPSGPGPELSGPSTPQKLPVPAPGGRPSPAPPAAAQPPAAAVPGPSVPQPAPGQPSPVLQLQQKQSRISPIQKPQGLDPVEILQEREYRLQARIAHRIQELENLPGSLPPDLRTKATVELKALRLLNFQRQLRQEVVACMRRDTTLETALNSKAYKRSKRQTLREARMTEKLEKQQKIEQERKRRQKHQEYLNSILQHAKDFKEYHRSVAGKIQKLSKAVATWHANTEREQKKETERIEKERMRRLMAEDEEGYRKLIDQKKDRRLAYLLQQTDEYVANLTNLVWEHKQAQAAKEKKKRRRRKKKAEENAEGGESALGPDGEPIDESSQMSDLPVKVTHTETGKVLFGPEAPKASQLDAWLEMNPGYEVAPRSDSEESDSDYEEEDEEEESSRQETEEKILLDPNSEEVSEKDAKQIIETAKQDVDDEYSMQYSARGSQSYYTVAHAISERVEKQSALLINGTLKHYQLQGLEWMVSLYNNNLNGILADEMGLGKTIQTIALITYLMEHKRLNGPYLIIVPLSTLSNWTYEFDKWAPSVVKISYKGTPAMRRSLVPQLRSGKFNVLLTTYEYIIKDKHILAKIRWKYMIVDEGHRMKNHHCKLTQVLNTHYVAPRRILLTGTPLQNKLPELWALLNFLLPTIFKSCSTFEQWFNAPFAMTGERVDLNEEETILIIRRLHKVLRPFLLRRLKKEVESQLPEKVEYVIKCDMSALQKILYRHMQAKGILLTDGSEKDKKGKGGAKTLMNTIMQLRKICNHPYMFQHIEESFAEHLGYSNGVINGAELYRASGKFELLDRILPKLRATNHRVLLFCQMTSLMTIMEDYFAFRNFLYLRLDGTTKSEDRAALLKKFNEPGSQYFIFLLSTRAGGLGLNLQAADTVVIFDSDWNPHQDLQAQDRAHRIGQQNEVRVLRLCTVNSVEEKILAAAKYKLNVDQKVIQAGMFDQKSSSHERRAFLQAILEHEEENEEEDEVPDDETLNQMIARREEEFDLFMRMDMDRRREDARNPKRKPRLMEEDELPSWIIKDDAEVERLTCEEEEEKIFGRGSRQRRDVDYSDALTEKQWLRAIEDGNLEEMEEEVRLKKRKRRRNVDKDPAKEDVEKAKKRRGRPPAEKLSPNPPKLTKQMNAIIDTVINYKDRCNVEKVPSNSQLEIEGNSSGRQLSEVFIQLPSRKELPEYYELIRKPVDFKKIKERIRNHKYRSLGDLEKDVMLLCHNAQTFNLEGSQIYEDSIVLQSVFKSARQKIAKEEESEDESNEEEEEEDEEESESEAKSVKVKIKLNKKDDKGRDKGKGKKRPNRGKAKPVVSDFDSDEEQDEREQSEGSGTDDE

Compound	Dmax [1]	BRM HiBit Degradation Maximum (%) (HiBit-BRM fusion protein)	DC50 (HiBit-BRM fusion protein)	DC50 [1]
Cc1ncsc1-c1ccc([C@H](C)NC(=O)[C@@H]2C[C@@H](O)CN2C(=O)[C@@H](c2cc(OCCN3CCC[C@H](c4c[nH]c5nnc(-c6ccccc6O)cc45)C3)no2)C(C)C)cc1 (racemic) [Compound 291, (2S,4R)-4-hydroxy-1-((R)-2-(3-(2-((R)-3-(3-(2-hydroxyphenyl)-7H-pyrrolo[2,3-c]pyridazin-5-yl)piperidin-1-yl)ethoxy)isoxazol-5-yl)-3-methylbutanoyl)-N-((S)-1-(4-(4-methylthiazol-5-yl)phenyl)ethyl)pyrrolidine-2-carboxamide]	< 50%	B (“B” indicates maximum degradation ≥ 50%)	> 10 nM	–
Cc1ncsc1-c1ccc([C@H](C)NC(=O)[C@@H]2C[C@@H](O)CN2C(=O)[C@@H](c2cc(OCCN3CC[C@H](c4c[nH]c5nnc(-c6ccccc6O)cc45)C3)no2)C(C)C)cc1 (racemic) [Compound 292, (2S,4R)-4-hydroxy-1-((R)-2-(3-(2-((R)-3-(3-(2-hydroxyphenyl)-7H-pyrrolo[2,3-c]pyridazin-5-yl)pyrrolidin-1-yl)ethoxy)isoxazol-5-yl)-3-methylbutanoyl)-N-((S)-1-(4-(4-methylthiazol-5-yl)phenyl)ethyl)pyrrolidine-2-carboxamide]	< 50%	B (“B” indicates maximum degradation ≥ 50%)	> 100 nM	–
Cc1ncsc1-c1ccc(CNC(=O)[C@@H]2C[C@@H](O)CN2C(=O)[C@@H](NC(=O)CCN(C)C23CC(c4cc5cc(-c6ccccc6O)nnc5[nH]4)(C2)C3)C(C)(C)C)cc1 (racemic) [Compound 293, (2S,4R)-4-hydroxy-1-[(2S)-2-[3-([3-[3-(2-hydroxyphenyl)-7H-pyrrolo[2,3-c]pyridazin-6-yl]bicyclo[1.1.1]pentan-1-yl](methyl)amino)propanamido]-3,3-dimethylbutanoyl]-N-[[4-(4-methyl-1,3-thiazol-5-yl)phenyl]methyl]pyrrolidine-2-carboxamide]	> 50%	A (“A” indicates maximum degradation ≥ 75%)	> 100 nM	> 1000 nM
Cc1ncsc1-c1ccc([C@H](C)NC(=O)[C@@H]2C[C@@H](O)CN2C(=O)[C@@H](c2cc(OCCN3CC(Cc4cc5cc(-c6ccccc6O)nnc5[nH]4)C3)no2)C(C)C)cc1 (racemic) [Compound 294, (2S,4R)-4-hydroxy-1-((R)-2-(3-(2-(3-((3-(2-hydroxyphenyl)-7H-pyrrolo[2,3-c]pyridazin-6-yl)methyl)azetidin-1-yl)ethoxy)isoxazol-5-yl)-3-methylbutanoyl)-N-((S)-1-(4-(4-methylthiazol-5-yl)phenyl)ethyl)pyrrolidine-2-carboxamide]	< 50%	A (“A” indicates maximum degradation ≥ 75%)	> 100 nM	–
Cc1ncsc1-c1ccc([C@H](C)NC(=O)[C@@H]2C[C@@H](O)CN2C(=O)[C@@H](c2cc(OCCNCc3ccc(Cc4cc5cc(-c6ccccc6O)nnc5[nH]4)cc3)no2)C(C)C)cc1 (racemic) [Compound 295]	> 75%	A (“A” indicates maximum degradation ≥ 75%)	> 10 nM	> 100 nM
Cc1ncsc1-c1ccc(CNC(=O)[C@@H]2C[C@@H](O)CN2C(=O)[C@@H](NC(=O)CCNC23CC(c4cc5cc(-c6ccccc6O)nnc5[nH]4)(C2)C3)C(C)(C)C)cc1 (racemic) [Compound 296]	> 50%	A (“A” indicates maximum degradation ≥ 75%)	> 1000 nM	> 1000 nM
Cc1ncsc1-c1ccc(CNC(=O)[C@@H]2C[C@@H](O)CN2C(=O)[C@@H](NC(=O)CCCCN2CC(c3cc4cc(-c5ccccc5O)nnc4[nH]3)C2)C(C)(C)C)cc1 (racemic) [Compound 297, (2S,4R)-4-hydroxy-1-((S)-2-(5-(3-(3-(2-hydroxyphenyl)-7H-pyrrolo[2,3-c]pyridazin-6-yl)azetidin-1-yl)pentanamido)-3,3-dimethylbutanoyl)-N-(4-(4-methylthiazol-5-yl)benzyl)pyrrolidine-2-carboxamide]	< 50%	C (“C” indicates maximum degradation < 50%)	–	–
Cc1ncsc1-c1ccc(CNC(=O)[C@@H]2C[C@@H](O)CN2C(=O)[C@@H](NC(=O)CCC(=O)NC23CC(c4cc5cc(-c6ccccc6O)nnc5[nH]4)(C2)C3)C(C)(C)C)cc1 (racemic) [Compound 298, N1-((S)-1-((2S,4R)-4-hydroxy-2-((4-(4-methylthiazol-5-yl)benzyl)carbamoyl)pyrrolidin-1-yl)-3,3-dimethyl-1-oxobutan-2-yl)-N4-(3-(3-(2-hydroxyphenyl)-7H-pyrrolo[2,3-c]pyridazin-6-yl)bicyclo[1.1.1]pentan-1-yl)succinamide]	< 50%	C (“C” indicates maximum degradation < 50%)	–	–
Cc1ncsc1-c1ccc(CNC(=O)[C@@H]2C[C@@H](O)CN2C(=O)[C@@H](NC(=O)CCCCC(=O)NC23CC(c4cc5cc(-c6ccccc6O)nnc5[nH]4)(C2)C3)C(C)(C)C)cc1 (racemic) [Compound 299, N1-((S)-1-((2S,4R)-4-hydroxy-2-((4-(4-methylthiazol-5-yl)benzyl)carbamoyl)pyrrolidin-1-yl)-3,3-dimethyl-1-oxobutan-2-yl)-N6-(3-(3-(2-hydroxyphenyl)-7H-pyrrolo[2,3-c]pyridazin-6-yl)bicyclo[1.1.1]pentan-1-yl)adipamide]	< 50%	B (“B” indicates maximum degradation ≥ 50%)	> 1000 nM	–
Cc1ncsc1-c1ccc([C@H](C)NC(=O)[C@@H]2C[C@@H](O)CN2C(=O)[C@@H](c2cc(OCCNCCN3CC(c4cc5cc(-c6ccccc6O)nnc5[nH]4)C3)no2)C(C)C)cc1 (racemic) [Compound 300]	> 50%	A (“A” indicates maximum degradation ≥ 75%)	> 100 nM	–
Cc1ncsc1-c1ccc(CNC(=O)[C@@H]2C[C@@H](O)CN2C(=O)[C@@H](NC(=O)CCCC(=O)NC23CC(c4cc5cc(-c6ccccc6O)nnc5[nH]4)(C2)C3)C(C)(C)C)cc1 (racemic) [Compound 301, N1-((S)-1-((2S,4R)-4-hydroxy-2-((4-(4-methylthiazol-5-yl)benzyl)carbamoyl)pyrrolidin-1-yl)-3,3-dimethyl-1-oxobutan-2-yl)-N5-(3-(3-(2-hydroxyphenyl)-7H-pyrrolo[2,3-c]pyridazin-6-yl)bicyclo[1.1.1]pentan-1-yl)glutaramide]	< 50%	B (“B” indicates maximum degradation ≥ 50%)	> 1000 nM	–
Cc1ncsc1-c1ccc([C@H](C)NC(=O)[C@@H]2C[C@@H](O)CN2C(=O)[C@@H](c2cc(OCCN(C)C34CC(c5cc6cc(-c7ccccc7O)nnc6[nH]5)(C3)C4)no2)C(C)C)cc1 (racemic) [Compound 302, (2S,4R)-4-hydroxy-1-((R)-2-(3-(2-((3-(3-(2-hydroxyphenyl)-7H-pyrrolo[2,3-c]pyridazin-6-yl)bicyclo[1.1.1]pentan-1-yl)(methyl)amino)ethoxy)isoxazol-5-yl)-3-methylbutanoyl)-N-((S)-1-(4-(4-methylthiazol-5-yl)phenyl)ethyl)pyrrolidine-2-carboxamide]	> 75%	A (“A” indicates maximum degradation ≥ 75%)	> 10 nM	> 10 nM
